Conditions: Liquid

CC(C)CCCC(C)CCCC(C)CCCCC(C)CCCC(C)CCCC(C)C (configuration not stated) [2,6,10,15,19,23-hexamethyltetracosane]
viscosity [mPa·s], Falling or rolling sphere viscometry
Conditions	10000 kPa	15000 kPa	25000 kPa	50000 kPa	75000 kPa	100000 kPa	125000 kPa	150000 kPa
303.15 K	27.4	30.8	38.2	62.7	98.5	150.8	227.4	339.5
313.15 K	18.4	20.4	24.8	39.1	59.5	88.7	130.3	189.8
323.15 K	13	14.3	17.1	26.1	38.7	56.3	80.9	115.4
333.15 K	9.2	10.1	12.1	18.2	26.5	37.8	53.2	74
343.15 K	7	7.6	9	13.3	19	26.7	37	50.8
353.15 K	5.4	5.9	6.9	10.1	14.2	19.5	26.4	35.5

CCCC[N+]1(C)CCCC1.O=S(=O)([O-])C(F)(F)F [1-butyl-1-methylpyrrolidinium trifluoromethanesulfonate]
viscosity [mPa·s]
Conditions	10000 kPa	15000 kPa	25000 kPa	50000 kPa	75000 kPa	100000 kPa	125000 kPa	150000 kPa
303.15 K, Concentric cylinders viscometry	147.2	158.4	181.8	249.5	341.1	–	–	–
303.15 K, Falling or rolling sphere viscometry	144.8	154.3	174.9	236.9	317.7	422.8	559.5	737.7
313.15 K, Concentric cylinders viscometry	–	–	–	148.1	202.2	–	–	–
313.15 K, Falling or rolling sphere viscometry	89.2	94.8	106.9	142.7	188.1	245.4	318.1	410.1
323.15 K, Falling or rolling sphere viscometry	58.9	62.5	70.2	92.3	119.5	153	194.1	244.7
333.15 K, Falling or rolling sphere viscometry	41.7	43.9	48.6	62.3	79	99.6	124.9	156
343.15 K, Falling or rolling sphere viscometry	29.9	31.4	34.7	44.2	55.7	69.6	86.4	106.8
353.15 K, Falling or rolling sphere viscometry	22.5	23.7	26.1	32.7	40.5	49.4	59.9	72

CCCC[N+]1(C)CCCC1.FC(F)(F)C(F)(F)[P-](F)(F)(F)(C(F)(F)C(F)(F)F)C(F)(F)C(F)(F)F
viscosity [mPa·s]
Conditions	10000 kPa	15000 kPa	25000 kPa	50000 kPa	75000 kPa	100000 kPa	125000 kPa	150000 kPa
303.15 K, Concentric cylinders viscometry	198.9	221.8	273.1	465.5	791.6	–	–	–
303.15 K, Falling or rolling sphere viscometry	189.5	212.4	265.5	454.7	765.1	1274	2111	3485
313.15 K, Concentric cylinders viscometry	118.9	131.3	162.6	263.5	434.8	–	–	–
313.15 K, Falling or rolling sphere viscometry	113.5	124.7	150.6	241.3	386.8	620.3	995.1	1597
323.15 K, Concentric cylinders viscometry	–	–	–	–	234.7	–	–	–
323.15 K, Falling or rolling sphere viscometry	73.4	80	94.9	145.4	222.6	340.5	520.9	797
333.15 K, Falling or rolling sphere viscometry	48	52	61	90.7	134.3	198.1	291.7	429.1
343.15 K, Falling or rolling sphere viscometry	33.9	36.5	42.2	60.5	86.9	124.5	178.5	255.8
353.15 K, Falling or rolling sphere viscometry	24.7	26.6	30.7	43.4	60.6	84.1	116	159.3

Source: the NIST ThermoML archive (doi:10.1016/j.jct.2015.03.002)
